The values below come from US20260306526A1, “COMBINATION THERAPY FOR BACTERIAL INFECTIONS COMPRISING ZINC-CHELATOR, BETA-LACTAM ANTIBIOTIC AND SERINE BETA-LACTAMASE INHIBITOR” (priority 2023, published 2026).

Molecules are shown by their SMILES. Several values for one entry are separate records, joined by “and”; a condition that tells them apart may be missing. Equal values may be shown once.

The test system of experiment [1] is many strains of Acinetobacter baumannii. Conditions: with MEM; cited from earlier work.
The subject of experiment [2] is bacteria which rely on SBLs. The note with it: with MEM; cited from earlier work.
The subject of experiment [3] is certain strains of Pseudomonas aeruginosa. Conditions: with MEM; cited from earlier work.
Experiment [4] concerns Pseudomonas aeruginosa ST111. In words: MIC determination, fixed concentration of sBLI (Examples 27-30). Type of experiment: cell-based. Conditions: VIM-2, OXA-395, PDC-3, caMHB, 29.4 μM Zn2+. On the procedure: Antimicrobial susceptibility testing (AST) by broth microdilution (MIC determination) was performed according to The European Committee on Antimicrobial Susceptibility Testing (EUCAST) guidelines (see Reading guide for broth microdilution Version 5.0, 2024: https://www.eucast.org).
For combinations containing meropenem as the antibiotic, Sensititre™ FINMER meropenem 64-0.03 μg/mL plates (Thermo Fischer Diagnostics custom plates; YFINMER) were used in most of the experiments. For other antibiotics (and for meropenem whenever a higher start concentration than 64 μg/mL was needed) sterile clear round bottom polystyrene (non-treated) 96-well microplates (Corning 3788) were used for making serial two-fold dilutions of the antibiotic in cation-adjusted Mueller Hinton II broth (caMHB; Thermo Scientific, T3462, containing 29.4 μM Zn^2+ or MILLIPORE, 90922-500G, containing 5.6 μM Zn^2+), across the columns of the microtiter plate (128-0.06 μg/mL; columns 1-12).
The checkerboard plates were all modified by adding a serine β-lactamase inhibitor (sBLI) at a fixed concentration of 16 μg/mL. Additionally, the zinc chelator was added at various fixed concentrations. […]

The subject of experiment [5] is K. pneumoniae K66-45 (NDM-1). Nature of the experiment: MIC determination of meropenem with zinc chelator at varying zinc concentrations in the medium (Example 31). Type of experiment: cell-based, Klebsiella pneumoniae. On the procedure:
An experiment was conducted to determine the Minimal Inhibitory Concentration (MIC) of meropenem (MEM) in combination with the zinc chelator according to Example 26 of WO 2018/033719 at varying concentrations of zinc in the medium. The medium was a Mueller Hinton broth from Thermo Fischer. The zinc content was measured as 5.6 μM using ICP-MS. The concentration of zinc in the plasma of healthy animals has been determined to be close to this value. In infectious tissue, the zinc concentration is below the limit of detection (see, for example Bilinskaya et al., Am. Soc. For Microbiology (2020), 58, pages 1-8). Zinc sulfate was then added to this broth to obtain three further concentrations: 15.6 μM, 25.6 μM and 35.6 μM of zinc, keeping all other parameters constant.
As a model bacterial strain for this experiment, the MIC of MEM vs. K. pneumoniae K66-45 (NDM-1) was then determined in broth containing the four concentrations of zinc following the protocol given in Example 1. The EUCAST MIC value for MEM alone (EUCAST: standardization organization for MIC values of antibiotics) is 4-8 μM, meaning that if a bacterial strain is inhibited at lower concentrations than the MIC value, the bacterial strain is sensitive(S) to MEM. Correspondingly, if the bacterial strain is not inhibited at MIC or lower, the strain is resistant (R). If the inhibition is within the MIC range 4-8 μM, the resistance is intermediate (I).

As to `CN(C[C@H](O)[C@@H](O)[C@H](O)[C@H](O)CO)C(=O)c1ccc(CN(Cc2ccccn2)Cc2ccccn2)nc1` [zinc chelator], the effect of combination entry in experiment [1] was “poor effect”; in experiment [2] it was “no effect”; in experiment [3], “poor effect”. Moreover, the “Synergy with the zinc chelator observed at concentration” value was 16 µg/mL in experiment [4] (Example 27, with PIP and AVI 16 μg/mL); 16 µg/mL and 8 µg/mL in experiment [4] (Example 28, with PIP and TAZ 16 μg/mL). Besides, in experiment [5] (printed: "at 4-8 μM when used tested at a concentration 4 μM", with MEM), the “sensitivity of the strain” value was “sensitive”. For the same molecule, in experiment [5] (zinc chelator 16 μM with MEM, highest concentration of zinc (35.6 μM)), the “effect against the bacterial strain” value is recorded as “ineffective”.
